According to patent publication US8962674B2 (Tokyo Institute of Technology, priority 2006, dated 2015):

Columns and labels:
[1] = biological target: recombinant human β-secretase (rhBACE-1) (Homo sapiens (Human), UniProt P56817); assay: β-Secretase enzyme inhibition assay (Test Example 1); assay type: biochemical; conditions: compound solution 3 μM (FIG. 1 legend: 1.0 μM), 37° C., 2 hr, fluorescent substrate peptide
Method: β-Secretase Enzyme Inhibition Assay
Compounds were dissolved in dimethylsulfoxide (DMSO), and further diluted in 0.1 M sodium acetate buffer (with 150 mM sodium chloride, pH 4.5). The solution with no compound was used as a negative control. Then, 100 μL of these solutions (compound concentration: 3 μM), 1 μL of recombinant human β-secretase (rhBACE-1, R&D), and 5 μL of the fluorescent substrate peptide were mixed in a black 96-well plate (Nunc). After mixtures were incubated in the dark at 37° C. for 2 hr, the fluorescence intensities of the mixtures were measured by fluorescence microplate reader (Wallac) at 540 nm for excitation and at 590 nm for emission. The inhibition ratio was calculated as a percentage of the negative control. The sequence of the peptide was […] and labeled with fluorescent donor (Cy3) at Ser-1 and with quencher (Cy5Q) at Lys-9, respectively (Invitrogen).

recombinant human β-secretase (rhBACE-1), sequence (P56817 46-501): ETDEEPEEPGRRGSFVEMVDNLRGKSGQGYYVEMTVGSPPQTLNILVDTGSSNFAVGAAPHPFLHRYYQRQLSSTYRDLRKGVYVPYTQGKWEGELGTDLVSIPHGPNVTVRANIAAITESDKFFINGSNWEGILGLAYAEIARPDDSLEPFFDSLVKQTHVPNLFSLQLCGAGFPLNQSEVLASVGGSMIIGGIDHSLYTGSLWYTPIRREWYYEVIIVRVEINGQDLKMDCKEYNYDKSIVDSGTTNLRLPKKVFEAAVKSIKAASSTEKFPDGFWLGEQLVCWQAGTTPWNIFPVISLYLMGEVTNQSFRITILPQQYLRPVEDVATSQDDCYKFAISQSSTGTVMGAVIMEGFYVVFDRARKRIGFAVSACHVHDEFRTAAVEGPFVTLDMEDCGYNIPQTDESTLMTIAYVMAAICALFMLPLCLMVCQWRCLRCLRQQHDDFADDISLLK

Compound | inhibition of BACE-1 enzyme activity (inhibitory activities (%) shown in FIG. 1) [1] | melting point [°C]
O=C(/C=C/c1ccc(O)cc1)CC(=O)/C=C/c1ccc2[nH]ccc2c1 [CU187, (1E,6E)-1-(4-hydroxyphenyl)-7-(1H-indol-5-yl)hepta-1,6-diene-3,5-dione] | strongly inhibited | 222 to 226
COc1ccc(/C=C/C(=O)CC(=O)/C=C/c2ccc3[nH]ccc3c2)cc1O [CU193, (1E,6E)-1-(3-hydroxy-4-methoxyphenyl)-7-(1H-indol-5-yl)hepta-1,6-diene-3,5-dione] | strongly inhibited | 182 to 185
COc1ccc(/C=C/C(=O)CC(=O)/C=C/c2cc(O)cc(O)c2)cc1O [CU094, (1E,6E)-1-(3,5-dihydroxyphenyl)-7-(3-hydroxy-4-methoxyphenyl)hepta-1,6-diene-3,5-dione] | strongly inhibited | 190 to 193
COc1cc(/C=C/C(=O)CC(=O)/C=C/c2cccc(O)c2OC)ccc1O [CU001, (1E,6E)-1-(3-hydroxy-2-methoxyphenyl)-7-(4-hydroxy-3-methoxyphenyl)hepta-1,6-diene-3,5-dione] | strongly inhibited | 152 to 155
O=C(/C=C/c1ccc(O)cc1)CC(=O)/C=C/c1cccc2ccccc12 [CU112, (1E,6E)-1-(4-hydroxyphenyl)-7-(naphthalen-1-yl)hepta-1,6-diene-3,5-dione] | strongly inhibited | –
CCn1c2ccccc2c2cc(/C=C/C(=O)CC(=O)/C=C/c3ccc(O)c(OC)c3)ccc21 [CU017, (1E,6E)-1-(9-ethyl-9H-carbazol-3-yl)-7-(4-hydroxy-3-methoxyphenyl)hepta-1,6-diene-3,5-dione] | strongly inhibited | 165 to 169
Cn1cc(/C=C/C(=O)CC(=O)/C=C/c2ccc(O)cc2)cn1 [CU198, (1E,6E)-1-(4-hydroxyphenyl)-7-(1-methyl-1H-pyrrazol-4-yl)hepta-1,6-diene-3,5-dione] | strongly inhibited | –
COc1ccc(/C=C/C(=O)CC(=O)/C=C/c2ccc(O)cc2)c2ccccc12 [CU116, (1E,6E)-1-(4-hydroxyphenyl)-7-(4-methoxynaphthalen-1-yl)hepta-1,6-diene-3,5-dione] | strongly inhibited | 193 to 198
COc1cc(/C=C/C(=O)CC(=O)/C=C/c2cccn2C)ccc1O [CU121, (1E,6E)-1-(4-hydroxy-3-methoxyphenyl)-7-(1-methyl-1H-pyrrol-2-yl)hepta-1,6-diene-3,5-dione] | strongly inhibited | 131 to 132
O=C(/C=C/c1ccc(O)cc1)CC(=O)/C=C/c1ccc(O)c(F)c1 [CU030, (1E,6E)-1-(3-fluoro-4-hydroxyphenyl)-7-(4-hydroxyphenyl)hepta-1,6-diene-3,5-dione] | strongly inhibited | 190 to 192
COc1cc(/C=C/C(=O)CC(=O)/C=C/c2ccc3cc[nH]c3c2)ccc1O [CU190, (1E,6E)-1-(4-hydroxy-3-methoxyphenyl)-7-(1H-indol-6-yl)hepta-1,6-diene-3,5-dione] | strongly inhibited | –
COc1ccc(/C=C/C(=O)CC(=O)/C=C/c2cccn2C)cc1O [CU122, (1E,6E)-1-(3-hydroxy-4-methoxyphenyl)-7-(1-methyl-1H-pyrrol-2-yl)hepta-1,6-diene-3,5-dione] | strongly inhibited | –
O=C(/C=C/c1ccc(O)c(Cl)c1)CC(=O)CCc1ccc(O)cc1 [CU546, (E)-1-(3-chloro-4-hydroxyphenyl)-7-(4-hydroxyphenyl)hept-1-ene-3,5-dione] | – | 45 to 51
